For data set [1], the system named is Reconstructed Human corneal Epithelium tissue (HCE). The format is cell-based. As to the method: In Vitro Eye Irritation (Adapted from OECD Guideline No. 439):
For evaluation of eye irritation (cornea tissue) we used the Acute Eye irritation test using Reconstructed Human corneal Epithelium tissue (HCE).
Each test substance (cream product formulation, placebo, positive and negative controls) was applied topically. After 10 minutes, 2 hours and 24 hours of treatment cell viability was determined using MTT.

Data set [2] has as its system reconstructed human tissue model (RHE). The format is cell-based. The source says:
In Vitro Skin Corrosion Test (Adapted from OECD Guideline No. 431):
To evaluate skin corrosion a reconstructed human tissue model (RHE) in three dimensions was used.

The nature of data set [3]: In vivo toxicity in infected hamsters (body weight, serum analytes, histopathology). The arrangement: species or system Golden hamsters (Mesocricetus aerates). As to the method: (§1) The evaluation of the therapeutic response and toxicity of the cream formulation was carried out in the hamster model for cutaneous leishmaniasis (Robledo et al, 2012) using the Golden hamsters (Mesocricetus aerates). Animals were handled under the same micro and macro environmental conditions. Experimental groups were named accordingly: A. Cream product formulation once a day; B. Cream product formulation twice a day; C. Placebo once a day and D. Placebo twice a day. Additionally, two groups of animals were used as control groups. One of them (E) was used to evaluate meglumine antimoniate as a control medicine at the curative (120 mg/kg day×10 days) and the other group (F) were infected and untreated animals.
Hamsters were weighed weekly from the beginning of the experiment until three months after the end of the treatment.
Effect of Treatments on Serum Levels of BUN, Creatinine and ALT:

For data set [4] the following is noted: rat, in vivo.
Text: In Vivo Skin Absorption/Penetration. This Study Followed the OECD Test Guideline 427.
In this method the test substance is applied to the clipped skin of animals and is allowed to remain in contact with the skin for a fixed period of time under a non-occlusive cover to prevent ingestion of the test preparation. At the end of the exposure time the cover is removed and the skin is cleaned with an appropriate cleansing agent, the cover and the cleansing materials are retained for analysis and a fresh cover applied. Animals were exposed to the test preparation during 8 hours. One group was killed at the end of the exposure period. Other group was sacrificed at 48 hours and a third group was sacrificed at 72 hours after the end of exposure. The samples were assayed for concentration of amphotericin B by HPLC and the degree of percutaneous absorption was estimated.
Dosage and treatment groups: 12 animals were used, divided into three groups, which were applied the product under study. Four animals for each time interval: 8 h, 48 h and 72 h.
Environmental conditions and housing: The animals were randomly distributed in individual cages. During the experiment, water management and food was ad libitum. […]
For data set [5] the following is noted: biphasic elimination described for amphotericin B; cited from earlier work.
The subject of data set [6] is Trypanosoma cruzi (T. cruzi). Conditions: given soon after infection at the onset of the acute phase; cited from earlier work.
The subject of data set [7] is 3T3. The experiment in a line: In vitro 3T3 NRU phototoxicity test (OECD Guideline No 432). It is filed as cell-based.
Text: Phototoxicity/Photosensitisation Potential: The OECD Guideline No 432 was Followed.
The subject of data set [8] is L. amazonensis. As to the kind of experiment: In vivo therapeutic response in the hamster model for cutaneous leishmaniasis. The arrangement: species or system Golden hamsters (Mesocricetus aerates). Conditions: intramuscular, once a day x 10 days, 120 mg/kg day. How it is done: In Vivo Therapeutic Response of Cream Product Formulation on L. amazonensis
as §1
The effectiveness of each treatment was assessed comparing the lesion sizes prior to and after treatments, using the following score system: cure (healing of 100% area and complete disappearance of the lesion); clinical improvement (reducing the size of the lesion in >30% of the area); clinical failure (reduction in the size of the lesion lower than 30% or increase in the size of the lesion); relapse (reactivation of lesion after cure).

The source of these data is patent US9801895B1, “Cream formulation with amphotericin B and oil in water useful for topical application to mucous tissue and skin against diseases produced by leishmaniasis” (priority 2013, dated 2017).

On to `C[C@@H]1[C@H](O)[C@@H](C)/C=C/C=C/C=C/C=C/C=C/C=C/C=C/[C@H](O[C@@H]2O[C@H](C)[C@@H](O)[C@H](N)[C@@H]2O)C[C@@H]2O[C@](O)(C[C@@H](O)C[C@@H](O)[C@H](O)CC[C@@H](O)C[C@@H](O)CC(=O)O[C@H]1C)C[C@H](O)[C@H]2C(=O)O` [amphotericin B, Amphotericin B], for which the “eye (corneal) irritation” value in data set [1] was “no corneal irritation”. In data set [2], the skin corrosion result was “does not show skin corrosion”. Also, the kidney histopathology entry in data set [3] is “no significant changes”. The liver histopathology entry in data set [3] (one or two applications per day) is recorded as “no lesions or significant changes”. Besides, in data set [4], the “amphotericin B in urine” value is on record as “not detected”. The “elimination half life, last elimination phase” value in data set [5] is recorded as 15 days.

As to `O=C(Cn1ccnc1[N+](=O)[O-])NCc1ccccc1` [benznidazole], in data set [6], the “effectiveness in curing the disease” value is about 100%.

Take `C[C@H]1c2cccc(O)c2C(=O)C2=C(O)[C@]3(O)C(=O)C(C(N)=O)=C(O)[C@@H](N(C)C)[C@@H]3[C@@H](O)[C@@H]21` [doxycycline]: the phototoxicity classification entry in data set [7] is listed as “phototoxic”. The compound further registered a PIF in data set [7] (exposure to light) of 9.3.

meglumine antimoniate registered an efficacy in data set [8] of 71%.
